Tests used:
[1] = biological target: Receptor-interacting serine/threonine-protein kinase 4 (Homo sapiens) (UniProt P57078); conditions: Compound concentration 100.0 nM
[2] = biological target: Serine/threonine-protein kinase/endoribonuclease IRE1 (Homo sapiens) (UniProt O75460); conditions: Compound concentration 100.0 nM
[3] = biological target: Serine/threonine-protein kinase tousled-like 1 (Homo sapiens) (UniProt Q9UKI8); conditions: Compound concentration 100.0 nM
[4] = test system: Receptor-type tyrosine-protein kinase FLT3 (Homo sapiens), P36888 [K663Q]; conditions: Compound concentration 100.0 nM
[5] = biological target: Muscarinic acetylcholine receptor M5 (Homo sapiens) (UniProt P08912); conditions: Compound concentration 10.0 uM
[6] = biological target: Dual specificity mitogen-activated protein kinase kinase 3 (Homo sapiens) (UniProt P46734); conditions: Compound concentration 100.0 nM
[7] = biological target: Phosphorylase b kinase gamma catalytic chain, skeletal muscle/heart isoform (Homo sapiens) (UniProt Q16816); conditions: Compound concentration 100.0 nM
[8] = biological target: Serine/threonine-protein kinase 10 (Homo sapiens) (UniProt O94804); conditions: Compound concentration 100.0 nM
[9] = biological target: T1, Dual specificity mitogen-activated protein kinase kinase 7 (Homo sapiens) (UniProt O14733); conditions: Compound concentration 100.0 nM
T1 sequence (whole entry): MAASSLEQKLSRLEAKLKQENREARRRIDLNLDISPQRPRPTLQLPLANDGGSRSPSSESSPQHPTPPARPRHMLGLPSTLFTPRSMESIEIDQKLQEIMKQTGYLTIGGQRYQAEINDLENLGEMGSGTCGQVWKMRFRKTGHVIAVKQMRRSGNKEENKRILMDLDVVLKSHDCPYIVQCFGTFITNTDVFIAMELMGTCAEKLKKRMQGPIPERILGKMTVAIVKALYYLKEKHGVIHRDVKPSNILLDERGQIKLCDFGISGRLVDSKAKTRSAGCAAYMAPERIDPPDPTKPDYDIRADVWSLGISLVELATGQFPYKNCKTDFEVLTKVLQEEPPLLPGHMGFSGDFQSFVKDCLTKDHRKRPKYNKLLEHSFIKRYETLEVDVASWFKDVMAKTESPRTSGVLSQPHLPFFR

[10] = biological target: Insulin-like growth factor 1 receptor (Homo sapiens) (UniProt P08069); conditions: Compound concentration 100.0 nM
[11] = biological target: Serine/threonine-protein kinase NLK (Homo sapiens) (UniProt Q9UBE8); conditions: Compound concentration 100.0 nM
[12] = biological target: Receptor tyrosine-protein kinase erbB-4 (Homo sapiens) (UniProt Q15303); conditions: Compound concentration 100.0 nM
[13] = biological target: Serine/threonine-protein kinase PAK 3 (Homo sapiens) (UniProt O75914); conditions: Compound concentration 100.0 nM
[14] = biological target: Glycogen synthase kinase-3 alpha (Homo sapiens) (UniProt P49840); conditions: Compound concentration 100.0 nM
[15] = biological target: cAMP-dependent protein kinase catalytic subunit alpha (Homo sapiens) (UniProt P17612); conditions: Compound concentration 100.0 nM
[16] = biological target: Mitogen-activated protein kinase kinase kinase 9 (Homo sapiens) (UniProt P80192); conditions: Compound concentration 100.0 nM
[17] = biological target: Serine/threonine-protein kinase 17B (Homo sapiens) (UniProt O94768); conditions: Compound concentration 100.0 nM
[18] = biological target: Tyrosine-protein kinase Srms (Homo sapiens) (UniProt Q9H3Y6); conditions: Compound concentration 100.0 nM
[19] = biological target: RAF proto-oncogene serine/threonine-protein kinase (Homo sapiens) (UniProt P04049); conditions: Compound concentration 100.0 nM
[20] = biological target: Protein kinase C eta type (Homo sapiens) (UniProt P24723); conditions: Compound concentration 100.0 nM
[21] = test system: Receptor-type tyrosine-protein kinase FLT3 (Homo sapiens), P36888 [N841I]; conditions: Compound concentration 100.0 nM
[22] = biological target: Activin receptor type-1B (Homo sapiens) (UniProt P36896); conditions: Compound concentration 100.0 nM
[23] = biological target: Dual specificity mitogen-activated protein kinase kinase 1 (Homo sapiens) (UniProt Q02750); conditions: Compound concentration 100.0 nM
[24] = biological target: Histamine H4 receptor (Homo sapiens) (UniProt Q9H3N8); conditions: Compound concentration 10.0 uM
[25] = biological target: Protein-tyrosine kinase 6 (Homo sapiens) (UniProt Q13882); conditions: Compound concentration 100.0 nM
[26] = biological target: Protein-tyrosine kinase 2-beta (Homo sapiens) (UniProt Q14289); conditions: Compound concentration 100.0 nM
[27] = biological target: Cyclin-dependent kinase 3 (Homo sapiens) (UniProt Q00526); conditions: Compound concentration 100.0 nM
[28] = biological target: Serine/threonine-protein kinase ICK (Homo sapiens) (UniProt Q9UPZ9); conditions: Compound concentration 100.0 nM
[29] = biological target: Serine/threonine-protein kinase TBK1 (Homo sapiens) (UniProt Q9UHD2); conditions: Compound concentration 100.0 nM
[30] = biological target: Protein kinase C theta type (Homo sapiens) (UniProt Q04759); conditions: Compound concentration 100.0 nM
[31] = biological target: Ephrin type-B receptor 6 (Homo sapiens) (UniProt O15197); conditions: Compound concentration 100.0 nM
[32] = biological target: Homeodomain-interacting protein kinase 3 (Homo sapiens) (UniProt Q9H422); conditions: Compound concentration 100.0 nM
[33] = biological target: Serine/threonine-protein kinase N1 (Homo sapiens) (UniProt Q16512); conditions: Compound concentration 100.0 nM
[34] = biological target: Serine/threonine-protein kinase pim-2 (Homo sapiens) (UniProt Q9P1W9); conditions: Compound concentration 100.0 nM
[35] = biological target: Maternal embryonic leucine zipper kinase (Homo sapiens) (UniProt Q14680); conditions: Compound concentration 100.0 nM
[36] = biological target: Non-receptor tyrosine-protein kinase TYK2 (Homo sapiens) (UniProt P29597); conditions: Compound concentration 100.0 nM
[37] = test system: Mast/stem cell growth factor receptor Kit (Homo sapiens), P10721 [V559D]; conditions: Compound concentration 100.0 nM
[38] = biological target: Rhodopsin kinase GRK7 (Homo sapiens) (UniProt Q8WTQ7); conditions: Compound concentration 100.0 nM
[39] = biological target: Death-associated protein kinase 1 (Homo sapiens) (UniProt P53355); conditions: Compound concentration 100.0 nM
[40] = biological target: Discoidin domain-containing receptor 2 (Homo sapiens) (UniProt Q16832); conditions: Compound concentration 100.0 nM

Chain of Glycogen synthase kinase-3 alpha (Homo sapiens) (P49840 2-483 limits assumed): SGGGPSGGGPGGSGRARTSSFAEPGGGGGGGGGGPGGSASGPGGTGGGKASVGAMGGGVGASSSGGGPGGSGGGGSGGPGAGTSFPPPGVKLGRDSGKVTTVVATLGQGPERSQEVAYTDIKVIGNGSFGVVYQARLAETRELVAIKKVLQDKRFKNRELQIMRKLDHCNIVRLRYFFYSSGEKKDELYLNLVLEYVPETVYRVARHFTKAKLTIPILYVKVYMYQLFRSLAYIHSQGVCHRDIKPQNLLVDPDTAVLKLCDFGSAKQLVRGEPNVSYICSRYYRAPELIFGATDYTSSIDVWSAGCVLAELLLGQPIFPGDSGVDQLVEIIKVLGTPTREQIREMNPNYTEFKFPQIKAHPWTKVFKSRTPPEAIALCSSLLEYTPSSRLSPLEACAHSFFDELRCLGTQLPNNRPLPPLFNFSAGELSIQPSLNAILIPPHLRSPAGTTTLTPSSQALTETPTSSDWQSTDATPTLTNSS
Chain of Insulin-like growth factor 1 receptor (Homo sapiens) (P08069 31-736 limits assumed): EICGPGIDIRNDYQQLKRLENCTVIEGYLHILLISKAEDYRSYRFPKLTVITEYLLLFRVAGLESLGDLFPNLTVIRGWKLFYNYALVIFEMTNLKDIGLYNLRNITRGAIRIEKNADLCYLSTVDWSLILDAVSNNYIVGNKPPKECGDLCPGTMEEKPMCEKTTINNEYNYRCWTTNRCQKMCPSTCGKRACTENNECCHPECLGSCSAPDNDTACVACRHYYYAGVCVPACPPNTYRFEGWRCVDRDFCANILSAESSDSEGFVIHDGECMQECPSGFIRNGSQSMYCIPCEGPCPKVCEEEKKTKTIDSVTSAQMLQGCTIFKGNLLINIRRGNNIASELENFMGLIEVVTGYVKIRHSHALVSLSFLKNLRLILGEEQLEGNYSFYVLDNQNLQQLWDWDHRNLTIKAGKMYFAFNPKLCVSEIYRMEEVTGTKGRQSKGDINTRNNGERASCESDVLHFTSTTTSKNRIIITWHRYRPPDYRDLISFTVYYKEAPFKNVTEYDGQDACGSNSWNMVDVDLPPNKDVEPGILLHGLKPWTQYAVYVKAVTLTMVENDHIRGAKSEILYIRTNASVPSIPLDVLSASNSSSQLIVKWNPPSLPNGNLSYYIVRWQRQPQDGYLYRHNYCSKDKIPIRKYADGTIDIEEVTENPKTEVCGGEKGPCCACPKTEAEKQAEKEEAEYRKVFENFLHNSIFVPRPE
Chain of Insulin-like growth factor 1 receptor (Homo sapiens) (P08069 741-1367 limits assumed): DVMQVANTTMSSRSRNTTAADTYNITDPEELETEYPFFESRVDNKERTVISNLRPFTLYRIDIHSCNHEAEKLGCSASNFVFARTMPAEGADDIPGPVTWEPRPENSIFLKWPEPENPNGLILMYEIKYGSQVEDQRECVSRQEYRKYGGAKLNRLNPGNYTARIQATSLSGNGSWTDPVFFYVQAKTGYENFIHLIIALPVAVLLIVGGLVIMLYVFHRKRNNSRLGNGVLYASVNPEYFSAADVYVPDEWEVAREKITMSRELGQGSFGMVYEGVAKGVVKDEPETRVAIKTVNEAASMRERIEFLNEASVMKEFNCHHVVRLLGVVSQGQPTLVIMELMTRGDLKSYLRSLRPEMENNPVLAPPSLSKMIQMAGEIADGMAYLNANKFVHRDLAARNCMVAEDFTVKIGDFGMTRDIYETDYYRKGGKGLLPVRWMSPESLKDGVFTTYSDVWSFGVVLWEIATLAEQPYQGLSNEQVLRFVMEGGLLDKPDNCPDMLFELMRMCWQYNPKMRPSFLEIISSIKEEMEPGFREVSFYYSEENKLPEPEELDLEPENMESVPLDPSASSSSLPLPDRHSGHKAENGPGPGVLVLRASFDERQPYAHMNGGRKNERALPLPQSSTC
Chain of Serine/threonine-protein kinase ICK (Homo sapiens) (Q9UPZ9 whole entry): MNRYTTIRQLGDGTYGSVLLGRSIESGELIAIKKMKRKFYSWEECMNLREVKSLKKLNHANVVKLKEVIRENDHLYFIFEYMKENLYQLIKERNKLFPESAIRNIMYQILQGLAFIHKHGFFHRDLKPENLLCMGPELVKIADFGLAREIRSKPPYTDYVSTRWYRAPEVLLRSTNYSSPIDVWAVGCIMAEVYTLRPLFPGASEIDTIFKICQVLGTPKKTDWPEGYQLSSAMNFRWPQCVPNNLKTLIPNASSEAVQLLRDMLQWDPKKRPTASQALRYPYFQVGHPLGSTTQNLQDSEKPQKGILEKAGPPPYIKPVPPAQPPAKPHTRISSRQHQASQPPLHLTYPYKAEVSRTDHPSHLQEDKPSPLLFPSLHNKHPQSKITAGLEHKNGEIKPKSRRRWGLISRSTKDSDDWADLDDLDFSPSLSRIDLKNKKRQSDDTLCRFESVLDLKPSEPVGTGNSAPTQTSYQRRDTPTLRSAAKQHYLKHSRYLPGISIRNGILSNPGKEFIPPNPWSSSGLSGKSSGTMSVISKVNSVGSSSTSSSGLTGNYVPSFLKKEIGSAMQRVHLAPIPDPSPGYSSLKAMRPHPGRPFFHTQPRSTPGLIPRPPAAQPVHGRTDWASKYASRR
Chain of Serine/threonine-protein kinase pim-2 (Homo sapiens) (Q9P1W9 whole entry, looked up): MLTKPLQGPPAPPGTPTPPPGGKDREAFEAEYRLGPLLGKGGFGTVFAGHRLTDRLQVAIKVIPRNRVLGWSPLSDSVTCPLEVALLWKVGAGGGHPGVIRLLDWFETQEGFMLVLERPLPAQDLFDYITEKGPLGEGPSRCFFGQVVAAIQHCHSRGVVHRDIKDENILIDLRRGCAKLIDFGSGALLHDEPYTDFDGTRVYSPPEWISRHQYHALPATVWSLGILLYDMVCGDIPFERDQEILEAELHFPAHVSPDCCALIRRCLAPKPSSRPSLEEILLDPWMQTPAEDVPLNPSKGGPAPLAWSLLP
Chain of Phosphorylase b kinase gamma catalytic chain, skeletal muscle/heart isoform (Homo sapiens) (Q16816 whole entry, looked up, canonical isoform): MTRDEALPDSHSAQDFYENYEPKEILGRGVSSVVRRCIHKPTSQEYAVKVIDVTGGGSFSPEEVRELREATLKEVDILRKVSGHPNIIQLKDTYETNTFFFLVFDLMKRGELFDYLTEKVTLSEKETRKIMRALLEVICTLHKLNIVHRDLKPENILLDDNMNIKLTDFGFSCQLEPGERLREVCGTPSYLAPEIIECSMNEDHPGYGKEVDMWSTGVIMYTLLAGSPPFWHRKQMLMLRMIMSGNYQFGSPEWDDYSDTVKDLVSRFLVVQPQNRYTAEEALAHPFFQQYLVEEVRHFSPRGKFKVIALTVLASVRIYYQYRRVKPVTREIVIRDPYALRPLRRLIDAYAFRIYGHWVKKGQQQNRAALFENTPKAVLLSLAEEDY
Chain of Death-associated protein kinase 1 (Homo sapiens) (P53355 whole entry, looked up, the tested form may be a part): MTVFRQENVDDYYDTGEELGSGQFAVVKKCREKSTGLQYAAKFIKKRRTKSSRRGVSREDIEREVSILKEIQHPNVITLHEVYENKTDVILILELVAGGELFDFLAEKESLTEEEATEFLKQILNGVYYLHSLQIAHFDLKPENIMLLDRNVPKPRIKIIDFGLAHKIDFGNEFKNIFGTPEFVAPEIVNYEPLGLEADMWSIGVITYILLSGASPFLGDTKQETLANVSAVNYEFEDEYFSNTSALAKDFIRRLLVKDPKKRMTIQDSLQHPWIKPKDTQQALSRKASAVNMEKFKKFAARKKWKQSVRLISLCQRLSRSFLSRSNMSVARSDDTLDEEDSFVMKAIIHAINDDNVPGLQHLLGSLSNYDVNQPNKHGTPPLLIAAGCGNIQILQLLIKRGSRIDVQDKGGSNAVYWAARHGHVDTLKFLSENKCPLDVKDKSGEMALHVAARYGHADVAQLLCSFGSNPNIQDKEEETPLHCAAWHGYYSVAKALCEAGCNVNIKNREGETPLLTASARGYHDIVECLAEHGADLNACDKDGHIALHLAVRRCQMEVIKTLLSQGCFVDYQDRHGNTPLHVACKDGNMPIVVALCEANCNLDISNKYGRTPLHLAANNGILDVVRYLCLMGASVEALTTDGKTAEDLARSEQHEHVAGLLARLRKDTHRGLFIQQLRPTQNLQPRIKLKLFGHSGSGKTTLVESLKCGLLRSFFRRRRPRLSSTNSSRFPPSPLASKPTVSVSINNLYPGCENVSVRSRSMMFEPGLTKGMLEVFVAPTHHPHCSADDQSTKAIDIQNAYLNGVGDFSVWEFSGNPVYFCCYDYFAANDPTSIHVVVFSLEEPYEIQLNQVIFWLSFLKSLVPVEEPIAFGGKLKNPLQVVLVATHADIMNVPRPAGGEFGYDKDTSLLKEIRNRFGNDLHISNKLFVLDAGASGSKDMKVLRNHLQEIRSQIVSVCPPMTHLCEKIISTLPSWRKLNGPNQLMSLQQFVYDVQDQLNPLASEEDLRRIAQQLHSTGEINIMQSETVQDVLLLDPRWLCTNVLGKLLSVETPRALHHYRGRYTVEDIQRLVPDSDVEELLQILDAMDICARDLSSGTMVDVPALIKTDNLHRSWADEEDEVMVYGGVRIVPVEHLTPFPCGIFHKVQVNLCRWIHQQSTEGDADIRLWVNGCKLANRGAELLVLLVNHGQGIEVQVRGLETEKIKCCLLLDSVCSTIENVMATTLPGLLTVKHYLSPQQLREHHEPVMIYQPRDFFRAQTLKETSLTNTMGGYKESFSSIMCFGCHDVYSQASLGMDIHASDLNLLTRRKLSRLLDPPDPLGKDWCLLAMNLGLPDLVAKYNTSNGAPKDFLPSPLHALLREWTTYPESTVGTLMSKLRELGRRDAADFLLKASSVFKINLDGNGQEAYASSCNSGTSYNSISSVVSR
Chain of Histamine H4 receptor (Homo sapiens) (Q9H3N8 whole entry): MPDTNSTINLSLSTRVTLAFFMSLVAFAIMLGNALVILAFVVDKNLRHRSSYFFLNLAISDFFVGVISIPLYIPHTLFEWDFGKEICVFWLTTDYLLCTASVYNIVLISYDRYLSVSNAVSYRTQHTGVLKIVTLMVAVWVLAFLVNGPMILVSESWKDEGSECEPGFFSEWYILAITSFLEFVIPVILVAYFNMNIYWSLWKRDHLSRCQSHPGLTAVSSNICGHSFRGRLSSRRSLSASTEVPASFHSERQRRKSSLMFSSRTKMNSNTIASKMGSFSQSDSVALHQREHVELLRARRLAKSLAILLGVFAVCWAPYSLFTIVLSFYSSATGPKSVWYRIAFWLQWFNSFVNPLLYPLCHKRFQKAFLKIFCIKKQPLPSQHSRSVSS

Compound | residual activity [1] [%] | residual activity [2] [%] | residual activity [3] [%] | residual activity [4] [%] | inhibition [5] [%] | residual activity [6] [%] | residual activity [7] [%] | residual activity [8] [%] | residual activity [9] [%] | residual activity [10] [%] | residual activity [11] [%] | residual activity [12] [%] | residual activity [13] [%] | residual activity [14] [%] | residual activity [15] [%] | residual activity [16] [%] | residual activity [17] [%] | residual activity [18] [%] | residual activity [19] [%] | residual activity [20] [%] | other results
Cn1cc(Cl)c2c(Oc3c(F)cc(Nc4cc(Cl)nc(N)n4)cc3F)ccnc21 [BAY-4900] | 100 | 76 | 100 | 100 | 3.3 | 94 | 100 | 100 | 84 | 97 | 100 | 97 | 100 | 99 | 90 | 96 | 84 | 100 | 91 | 98 | residual activity [21]: 96%; residual activity [22]: 98%; residual activity [23]: 90%; inhibition [24]: -9.04%; residual activity [25]: 86%; residual activity [26]: 100%; residual activity [27]: 100%; residual activity [28]: 100%; residual activity [29]: 100%; residual activity [30]: 99%; residual activity [31]: 100%; residual activity [32]: 80%; residual activity [33]: 100%; residual activity [34]: 88%; residual activity [35]: 89%; residual activity [36]: 81%; residual activity [37]: 96%; residual activity [38]: 82%; residual activity [39]: 100%; residual activity [40]: 66%
Cc1c[nH]c2nccc(Oc3c(F)cc(Nc4cc(Cl)nc(N)n4)cc3F)c12 [BAY-549] | 84 | 68 | 100 | 87 | -3.6 | 100 | 100 | 100 | 67 | 86 | 100 | 100 | 86 | 95 | 28 | 89 | 100 | 100 | 75 | 74 | residual activity [21]: 76%; residual activity [22]: 87%; residual activity [23]: 81%; inhibition [24]: -8.74%; residual activity [25]: 100%; residual activity [26]: 90%; residual activity [27]: 97%; residual activity [28]: 79%; residual activity [29]: 96%; residual activity [30]: 66%; residual activity [31]: 96%; residual activity [32]: 92%; residual activity [33]: 72%; residual activity [34]: 100%; residual activity [35]: 57%; residual activity [36]: 78%; residual activity [37]: 90%; residual activity [38]: 68%; residual activity [39]: 98%; residual activity [40]: 57%
